Measurements from patent US12122779B2, “Pyrrolo-pyridazine derivatives as muscarinic M1 receptor positive allosteric modulators” (SUVEN LIFE SCIENCES LIMITED, priority 2018, dated 2024).

Columns and labels:
[1] = Rodent pharmacokinetic study; type: in vivo, Male Wistar rats; details: male, Wistar, plasma, rat
Description: Rodent Pharmacokinetic Study
Male Wistar rats (260±50 grams) were used as experimental animals. Animals were housed individually in polypropylene cage. Two days prior to study, male Wistar rats were anesthetized with isoflurane for surgical placement of jugular vein catheter. Rats were randomly divided for oral (3 mg/kg) and intravenous (1 mg/kg) dosing (n=3/group) and fasted overnight before oral dosing (p.o.). However, rats allocated to intravenous dosing food and water was provided ad libitum.
At pre-determined point, blood was collected through jugular vein and replenished with an equivalent volume of normal saline. Collected blood was transferred into a labeled eppendorf tube containing 10 μL of heparin as an anticoagulant. Typically blood samples were collected at following time points: 0.08, 0.25, 0.5, 1, 2, 4, 6, 8, and 24 h post dose. Blood was centrifuged at 4000 rpm for 10 minutes. Plasma was separated and stored frozen at −80° C. until analysis. The concentrations of the test compounds were quantified in plasma by qualified LC-MS/MS method using suitable extraction technique. The test compounds were quantified in the calibration range around 1-1000 ng/mL in plasma. Study samples were analyzed using calibration samples in the batch and quality control samples spread across the batch.
Pharmacokinetic parameters Cmax, AUCt, T1/2, Clearance and Bioavailability (F) were calculated by non-compartmental model using standard non-compartmental model by using Phoenix WinNonlin 6.0.4 version Software package.

[2] = Rodent brain penetration study; type: in vivo, Male Wistar rats; details: male, Wistar, brain and plasma, po; rat, 3 mg/kg p.o., brain-plasma ratio; read-out: Single dose Rat Brain Penetration (Cb/Cp) at 3 mg/kg, p.o.
Description: Rodent Brain Penetration Study
Male Wistar rats (260±40 grams) were used as experimental animals. Three animals were housed in each cage. Animals were given water and food ad libitum throughout the experiment and maintained on a 12 h light/dark cycle.
Brain penetration was determined in discrete manner in rats. One day prior to dosing day, male Wistar rats were acclimatized and randomly grouped according to their weight. At each time point (0.50, 1 and 2 h) n=3 animals were used.
The test compounds were suitably preformulated and administered orally at (free base equivalent) 3 mg/kg. Blood samples were removed via cardiac puncture by using isoflurane anesthesia. The animals were sacrificed to collect brain tissue. Plasma was separated and brain samples were homogenized and stored frozen at −20° C. until analysis. The concentrations of the test compounds in plasma and brain were determined using LC-MS/MS method.
The test compounds were quantified in plasma and brain homogenate by qualified LC-MS/MS method using suitable extraction technique. The test compounds were quantified in the calibration range of 1-500 ng/mL in plasma and brain homogenate. Study samples were analyzed using calibration samples in the batch and quality control samples spread across the batch. Extent of brain-plasma ratio (Cb/Cp) was calculated.

Male Swiss mice = test: Effect on colonic transit; type: in vivo; details: doses of 1 and 3 mg/kg, p.o., carmine dye, 3 hours after dye
Description: Effect on Colonic Transit
Male Swiss mice of body weight ˜20-30 g were fasted for 16 hours with free access to water prior to the experiment. Mice were administrated example 1 or vehicle, 30 min after administration of 0.5 ml of carmine dye solution. Mice were sacrificed 3 hours after dye administration and the distance traveled by the dye from proximal colon was measured. Colonic transit was expressed as % colonic transit=100×(length of colon in which carmine moved/total length of colon).

[3] = target: T1, recombinant human Muscarinic M1 receptor (Homo sapiens, UniProt P11229); test: Allosteric potency EC50 for muscarinic M1 receptor, CHO pCRE-Luc reporter cell-based assay with EC20 of acetylcholine; details: CHO cells, luciferase activity, in presence of EC20 of acetylcholine, 4 hours
T1 sequence (P11229 1-460): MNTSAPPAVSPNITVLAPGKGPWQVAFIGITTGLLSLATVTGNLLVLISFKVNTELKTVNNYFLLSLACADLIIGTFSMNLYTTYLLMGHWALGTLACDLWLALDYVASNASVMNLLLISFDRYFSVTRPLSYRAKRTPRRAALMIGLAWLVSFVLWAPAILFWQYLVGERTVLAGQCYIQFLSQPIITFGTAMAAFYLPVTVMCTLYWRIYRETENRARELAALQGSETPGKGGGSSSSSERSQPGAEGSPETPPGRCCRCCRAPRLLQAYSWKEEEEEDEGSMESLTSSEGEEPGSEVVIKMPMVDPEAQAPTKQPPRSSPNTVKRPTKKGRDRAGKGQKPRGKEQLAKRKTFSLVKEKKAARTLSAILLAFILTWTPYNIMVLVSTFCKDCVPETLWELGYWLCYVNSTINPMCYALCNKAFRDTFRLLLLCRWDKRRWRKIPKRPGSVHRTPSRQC
Description: Determination of Allosteric Potency EC50 Values for Muscarinic M1 Receptor
A stable CHO cell line expressing recombinant human Muscarinic M1 receptor and pCRE-Luc reporter system was used for cell-based assay. The assay offers a non-radioactive based approach to determine binding of a compound to GPCRs. In this specific assay, the level of intracellular cyclic AMP which is modulated by activation or inhibition of the receptor is measured. The recombinant cells harbor luciferase reporter gene under the control of cyclic AMP response element.
The above cells were grown in 96 well clear bottom white plates in Hams F12 medium containing 10% fetal bovine serum (FBS). Prior to the addition of compounds or standard agonist, cells were serum starved overnight. Increasing concentrations of test compounds were added along with EC20 of acetylcholine in OptiMEM medium to the cells. The incubation was continued at 37° C. in CO2 incubator for 4 hours. Medium was removed and cells were washed with phosphate buffered saline. The cells were lysed and luciferase activity was measured in a Luminometer. Luminescence units were plotted against the compound concentrations using Graphpad software.

With `Cn1cc(-c2ccc(Cc3cc(C(=O)N[C@H]4CCOC[C@@H]4O)nn4cccc34)cc2)cn1` (stereo in doubt) [Example 38, N-[3-Hydroxy-tetrahydropyran-4-yl] 4-[4-(1-methyl-1H-pyrazol-4-yl)-benzyl]-pyrrolo[1,2-b]pyridazine-2-carboxamide] the AUC(0-t) ([1]; intravenous (bolus), 1 mg/kg) was 7240 ± 890 ng·h/mL, the clearance ([1]; intravenous (bolus), 1 mg/kg) was 2.31 ± 0.29 mL/min/kg and the half-life ([1]; intravenous (bolus), 1 mg/kg) was 3.42 ± 0.29 h. It also gave a bioavailability ([1]; oral 3 mg/kg vs intravenous 1 mg/kg, read-out: F (%) Bioavailability) of 60 ± 4%, an AUC(0-t) ([1]; oral (gavage), 3 mg/kg) of 13000 ± 954 ng·h/mL and a Cmax ([1]; oral (gavage), 3 mg/kg) of 1860 ± 185 ng/mL. For the same compound, the half-life ([1]; oral (gavage), 3 mg/kg) was 3.74 ± 0.15 h, the Kp [2] was 0.15 ± 0.02 and the Colonic transit (Male Swiss mice) was “increased the colonic transit”. The EC50 [3] was 692 nM.
